Source: paper PMC8746705, “Comparison of Experimental Strategies to Study L-Type Amino Acid Transporter 1 (LAT1) Utilization by Ligands” (Molecules, 2021)

Key:
[1] = molecular target: LAT1 (Mus musculus, UniProt Q9Z127); assay: Inhibition type of [14C]-L-Leu uptake (Hanes-Woolf plots) in BV2 cells; assay type: cell-based; conditions: for Vmax of [14C]-L-Leu uptake: 0.010–0.20 µM [14C]-L-Leu in the presence of the compound at its IC50, mean ± SD, n = 3–4; for Vmax of [14C]-L-Leu uptake / Inhibition Type: BV2; for IC50: Table 2, compound concentration used in the inhibition type study, corresponding to IC50 of [14C]-L-Leu uptake; for Inhibition Type: of [14C]-L-Leu uptake, concluded from Km and Vmax
Chain of LAT1 (Q9Z127 whole entry): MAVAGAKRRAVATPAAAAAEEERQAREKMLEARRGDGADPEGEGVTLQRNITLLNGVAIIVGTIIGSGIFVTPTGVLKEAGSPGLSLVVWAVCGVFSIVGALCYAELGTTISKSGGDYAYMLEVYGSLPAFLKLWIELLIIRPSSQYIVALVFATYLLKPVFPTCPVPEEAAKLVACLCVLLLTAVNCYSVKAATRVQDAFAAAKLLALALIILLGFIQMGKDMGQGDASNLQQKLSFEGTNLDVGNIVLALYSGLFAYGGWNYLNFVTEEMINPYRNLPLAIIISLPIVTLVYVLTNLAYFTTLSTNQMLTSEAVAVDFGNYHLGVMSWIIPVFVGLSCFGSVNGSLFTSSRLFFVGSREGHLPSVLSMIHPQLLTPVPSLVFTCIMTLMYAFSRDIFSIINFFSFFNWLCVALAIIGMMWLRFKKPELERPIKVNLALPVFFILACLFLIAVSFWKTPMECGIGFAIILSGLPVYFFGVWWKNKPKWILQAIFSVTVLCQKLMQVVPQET
Chain of LAT1 (P10852 whole entry partner): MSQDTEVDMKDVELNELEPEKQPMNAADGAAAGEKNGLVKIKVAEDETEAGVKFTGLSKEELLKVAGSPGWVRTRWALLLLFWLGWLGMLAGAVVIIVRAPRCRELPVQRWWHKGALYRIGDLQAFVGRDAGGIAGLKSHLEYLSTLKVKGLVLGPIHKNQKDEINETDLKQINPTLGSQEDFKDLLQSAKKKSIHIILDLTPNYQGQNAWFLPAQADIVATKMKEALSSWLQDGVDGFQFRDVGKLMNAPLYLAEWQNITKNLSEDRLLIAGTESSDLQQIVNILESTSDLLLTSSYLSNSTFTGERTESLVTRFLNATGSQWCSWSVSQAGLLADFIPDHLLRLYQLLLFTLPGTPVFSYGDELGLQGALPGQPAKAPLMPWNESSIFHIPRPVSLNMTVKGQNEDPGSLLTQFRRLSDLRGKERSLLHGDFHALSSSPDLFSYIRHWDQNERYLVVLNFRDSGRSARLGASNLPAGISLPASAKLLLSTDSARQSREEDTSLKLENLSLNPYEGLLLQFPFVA
In short: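 BV2 cells preincubated 10 min at 37 °C in Na+-free choline HBSS (pH 7.4), then exposed to 0.010–0.20 μM [14C]-L-leucine plus compound at IC50-guided concentration; uptake counted by liquid scintillation. Km and Vmax derived by linear regression of Hanes-Woolf plots ([S]/v vs substrate).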

[2] = system: brain amino acids L-Leu, L-Trp, L-Tyr and L-Tyr metabolites; assay: Brain amino acid homeostasis after i.p. dose to mice; assay type: in vivo; conditions: mouse brain, single i.p. dose 25 µmol/kg; for Brain 3,4-dihydroxyphenylacetic acid levels: compound 2: 2 and 4 h compared to first time point (10 min)
Method: Adult male mice weighing 25 ± 5 g were supplied by Envigo (Venray, Netherlands). Mice were housed in stainless steel cages on a 12 h light (07:00–19:00) and 12 h dark (19:00–07:00) cycle at an ambient temperature of 22 ± 1 °C with a relative humidity of 50–60%. All experiments were carried out during the light phase. Tap water and food pellets (Lactamin R36; Lactamin AB, Södertälje, Sweden) were available ad libitum. A dose of 25 µmol/kg of compound 1, 2, or 8–11 was given as a bolus injection (i.p.) to mice. The mice were decapitated at selected time points between (10–360 min) and brain tissues were collected for sample preparation to be analyzed by liquid chromatography-mass spectrometric (LC-MS/MS) analysis.
Brain samples were prepared similarly as described above by homogenizing the pre-weigh tissues with ultrapure water (1:3). Subsequently, 100 µL of the homogenates was taken, and the proteins were precipitated with 300 µL of ACN containing the internal standard (labetalol).
Samples were vortexed and centrifuged at 10,000× g at 4 °C for 10 min. 200 µL of supernatant was mixed with 100 µL of ultrapure water and injected to LC-MS/MS equipment described above. The amounts of three known LAT1-utilizing amino acids, L-Leu, L-Tyr, and L-Trp, and two L-Tyr metabolites, namely p-hydroxyphenylacetate and 3,4-dihydroxyphenylacetic acid, were quantified with a method described earlier. […] Data were acquired using the Agilent MassHunter Workstation Acquisition software (Data Acquisition for Triple Quadrupole Mass Spectrometer, version B.03.01) and processed and analyzed with Quantitative Analysis (B.04.00) software. The lower limit of quantification (LLOQ) for the amino acids in tissue samples was 0.1 nM for L-Leu, L-Tyr, and L-Trp and 1 nM for p-hydroxyphenylacetate and 3,4-dihydroxyphenylacetic acid. […] The concentrations of the amino acids and their metabolites were calculated from the standard curve that was prepared by spiking known amounts of compounds to ACN including the selected internal standard.

[3] = Stability / bioconversion of prodrugs to parent drugs (biological media, 0.1 M NaOH cell lysing); assay type: in vitro ADME; conditions: cell lysate samples for LC-MS/MS (Table S1 footnote)
From the text: LAT1-utilizing prodrugs 1–15 (Figure 1) were selected for this study based on their ability to utilize LAT1 expressed in cells used in our previous studies. Therefore, the syntheses of these compounds are not described herein as they have been reported earlier. These compounds include prodrugs of an investigational immunosuppressive agent, perforin inhibitor (1), non-steroidal anti-inflammatory drugs (NSAIDs), ketoprofen (2–4, 14), salicylic acid (8), flurbiprofen (9 and 12), ibuprofen (10 and 13) and naproxen (11 and 15), as well as the polyphenolic antioxidant, ferulic acid (5–7). […] In addition, all NSAID prodrugs (compounds 2–4, 9–15) were prepared from their pure S-enantiomers. Prodrugs of ferulic acid (compounds 5–7) were mixtures of E- and […], which were interconvertible over time. […] Therefore, both prodrug and the released parent drug proportions were quantified and taken into account when calculating concentrations transported into the cells.
1. LC-MS/MS ionization parameters of compounds 1-15
Table S1. Ionization parameters for the LC-MS/MS methods of the studied compounds.
Precursor Product Fragmentor Collision Flow rate Gradient LLOQ
Compound ion ion(s) Voltage (V) Energy (mL/min) (A:B) (nM) […]
perforin inhibitor 1a and therefore, their transitions with a positive ion mode are reported only as KPF or as a prodrug and parent drug in parentheses. […]
drugs (ferulic acid (FA), flurbiprofen (FLB), ibuprofen (IBU), and naproxen (NPX), respectively), whose transitions with a negative ion mode are reported below the studied LAT1 -utilizing compounds i n parentheses.

Compound	Vmax of [14C]-L-Leu uptake [1]	IC50 [1]	Inhibition Type [1]	Brain p-hydroxyphenylacetate levels ([2]; after 30 min of the bolus injection compared to other time points)	Conversion to parent drug in the analysed samples [3]	Brain 3,4-dihydroxyphenylacetic acid levels [2]
NC(Cc1cccc(C(=O)Oc2ccc(-c3ccc(-c4ccc5c(c4)COC5=O)s3)cc2)c1)C(=O)O (stereo not shown) [Compound 1]	1.792 ± 0.106 nmol/min/mg	7 µM	Mixed type	significantly lower	partly	
C[C@H](C(=O)Nc1cccc(C[C@H](N)C(=O)O)c1)c1cccc(C(=O)c2ccccc2)c1 [Compound 2]	2.759 ± 0.066 nmol/min/mg	3 µM	Mixed type			significant reduction
C[C@H](C(=O)Oc1cccc(C[C@H](N)C(=O)O)c1)c1cccc(C(=O)c2ccccc2)c1 [Compound 4]	1.599 ± 0.170 nmol/min/mg	15 µM	Non-competitive		fully converted into ketoprofen	
COc1cc(C=CC(=O)NCc2cccc(CC(N)C(=O)O)c2)ccc1O (stereo not shown) [Compound 5]	1.910 ± 0.057 nmol/min/mg		Un-competitive			
COc1cc(/C=C/C(=O)Oc2cccc(C[C@H](N)C(=O)O)c2)ccc1O [Compound 7]	2.780 ± 0.126 nmol/min/mg	38 µM	Mixed type		partly converted to their parent	
N[C@@H](Cc1cccc(NC(=O)c2ccccc2O)c1)C(=O)O [Compound 8]	1.644 ± 0.073 nmol/min/mg	19 µM	Un-competitive			Not detected at all
C[C@H](C(=O)Nc1cccc(C[C@H](N)C(=O)O)c1)c1ccc(-c2ccccc2)c(F)c1 [Compound 9]	2.422 ± 0.061 nmol/min/mg	6 µM	Non-competitive			
C[C@H](C(=O)Oc1cccc(C[C@H](N)C(=O)O)c1)c1ccc(-c2ccccc2)c(F)c1 [Compound 12]	1.513 ± 0.218 nmol/min/mg	4 µM	Mixed type		partly converted to their parent	
COc1ccc2cc([C@H](C)C(=O)Oc3cccc(C[C@H](N)C(=O)O)c3)ccc2c1 [Compound 15]	1.448 ± 0.099 nmol/min/mg	10 µM	Non-competitive		partly converted to their parent	
